Data taken from article PMC4809498, “Artonin E Induces Apoptosis via Mitochondrial Dysregulation in SKOV-3 Ovarian Cancer Cells” (PLoS ONE, 2016).
≈ marks a conversion by molar mass, not a printed value.

Key:
SKOV-3 cells = assay: MTT cell viability assay, SKOV-3; assay type: cell-based, human; settings: SKOV-3, MTT; for IC50: Homo sapiens
Protocol: (§1) Metastatic ovarian adenocarcinoma (SKOV-3) and normal Chinese hamster ovary (CHO) cell lines were originally obtained from the American Type Culture Collection (ATCC; Manassas, VA). SKOV-3 cells were cultured in McCoy’s 5A medium and CHO cells were cultured in F12K medium. A human periodontal ligament fibroblast cell line was purchased from Lonza, USA and maintained in stroma cell basal medium. T1074 (normal immortalized human ovarian surface epithelial cell line) was originally purchased from Applied Biological Materials (abm®) Canada and cultured in Prigrow 1 medium.
(§2) The inhibitory effects of artonin E and two positive controls paclitaxel and carboplatin were examined by MTT assay. Cells at a density of 5×10^3cells/well were placed in a 96-well plate and left for 24 h to attach. The attached cells were exposed to artonin E, paclitaxel, and carboplatin at different concentrations and incubated for 24, 48, and 72 h. Subsequently, 20 μL of 5 mg/mL MTT solution was added after drug treatment and the resulting mixture was incubated for 4 h to form purple formazan. Afterward, 100 μL of dimethyl sulfoxide (DMSO) was transferred into each well to dissolve the purple formazan, and results were measured using a microplate reader (Tecan Infinite M 200 PRO, Männedorf, Switzerland) at an absorbance of 570 nm. The half-maximal concentrations that caused cell growth inhibition (IC50 values) were obtained from the MTT viability growth curve.

T1074 cells = assay: MTT cell viability assay, T1074; assay type: cell-based, human; settings: for IC50: Homo sapiens
Protocol: as §1, §2

IC50 (SKOV-3 cells; SK-OV-3, 24 h, 24 h treatment) [µg/mL]	IC50 (SKOV-3 cells; SK-OV-3, 48 h, 48 h treatment) [µg/mL]	IC50 (SKOV-3 cells; SK-OV-3, 72 h, 72 h treatment) [µg/mL]	SMILES	IC50 values (SKOV-3 cells; 24 h treatment) [µg/mL]	IC50 values (SKOV-3 cells; 48 h treatment) [µg/mL]	IC50 values (SKOV-3 cells; 72 h treatment) [µg/mL]	IC50 values (T1074 cells; 24 h treatment) [µg/mL]	IC50 values (T1074 cells; 48 h treatment) [µg/mL]	IC50 values (T1074 cells; 72 h treatment) [µg/mL]	IC50 (T1074 cells; 24 h treatment) [µg/mL]	IC50 (T1074 cells; 48 h treatment) [µg/mL]	IC50 (T1074 cells; 72 h treatment) [µg/mL]
			N.N.O=C([O-])C1(C(=O)[O-])CCC1.[Pt+2] [Carboplatin, carboplatin]	15.1 ± 0.36	10.5 ± 0.5	7.2 ± 0.25	45.6 ± 0.57	25.8 ± 0.28	10.8 ± 0.7			
4.6 ± 0.28 (≈ 5.39 µM)	2.5 ± 0.2 (≈ 2.93 µM)	0.8 ± 0.2 (≈ 0.937 µM)	CC(=O)O[C@H]1C(=O)[C@@]2(C)[C@H]([C@H](OC(=O)c3ccccc3)[C@]3(O)C[C@H](OC(=O)[C@H](O)[C@@H](NC(=O)c4ccccc4)c4ccccc4)C(C)=C1C3(C)C)[C@]1(OC(C)=O)CO[C@@H]1C[C@@H]2O [Paclitaxel, paclitaxel]							> 50	49.3 ± 0.76 (≈ 57.7 µM)	30.5 ± 0.5 (≈ 35.7 µM)
